Results on 19 compounds are retold here after patent publication US8309730B2, “Nonsteroidal compounds useful as modulators of glucocorticoid receptor AP-1 and/or NF-kappab acitivity and use thereof” (Bristol-Myers Squibb Company, priority 2007, dated 2012).

The experiment deals with T1, human glucocorticoid receptor (Homo sapiens, UniProt P04150).
T1 construct: purified human recombinant full-length glucocorticoid receptor (2 nM); purchased Invitrogen Part #2893
T1 sequence (P04150 1-777): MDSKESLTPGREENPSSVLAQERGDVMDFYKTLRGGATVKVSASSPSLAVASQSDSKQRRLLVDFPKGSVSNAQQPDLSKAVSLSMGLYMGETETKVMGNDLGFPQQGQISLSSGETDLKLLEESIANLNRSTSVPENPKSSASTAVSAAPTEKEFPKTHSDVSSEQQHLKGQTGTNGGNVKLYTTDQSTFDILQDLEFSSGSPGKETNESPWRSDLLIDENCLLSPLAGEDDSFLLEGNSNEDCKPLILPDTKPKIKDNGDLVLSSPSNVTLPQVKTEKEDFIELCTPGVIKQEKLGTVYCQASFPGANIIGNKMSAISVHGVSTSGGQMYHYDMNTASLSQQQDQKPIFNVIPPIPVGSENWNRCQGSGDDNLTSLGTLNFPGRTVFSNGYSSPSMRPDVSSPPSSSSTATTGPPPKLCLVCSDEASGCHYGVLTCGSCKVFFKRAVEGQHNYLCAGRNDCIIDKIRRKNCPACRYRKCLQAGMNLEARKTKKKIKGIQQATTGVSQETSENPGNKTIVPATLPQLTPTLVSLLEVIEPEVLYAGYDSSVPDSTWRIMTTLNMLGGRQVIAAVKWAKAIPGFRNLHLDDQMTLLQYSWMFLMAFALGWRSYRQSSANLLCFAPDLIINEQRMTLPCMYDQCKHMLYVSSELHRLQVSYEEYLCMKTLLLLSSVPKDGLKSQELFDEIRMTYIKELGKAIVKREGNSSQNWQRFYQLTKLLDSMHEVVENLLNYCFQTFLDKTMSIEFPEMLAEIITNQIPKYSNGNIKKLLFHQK
Kind of experiment: Glucocorticoid Receptor Binding Assay (I), fluorescence polarization competitor kit. The settings on record: purified human recombinant full-length GR, Fluormone GS Red, 2 h room temperature. On the procedure: Briefly, purified human recombinant full-length glucocorticoid receptor (2 nM) was mixed with fluorescently labeled glucocorticoid (1 nM Fluormone GS Red) in the presence or absence of test compound. After two hours incubation at room temperature in the dark, the fluorescence polarization (FP) of the sample was measured. […] Test compounds were analyzed in the concentration range from 8.5E-05 μM to 5 μM.
For the compound `C[C@]12Cn3cnc(-c4ccc(F)cc4)c3C=C1CCC[C@@H]2C(=O)c1ccc(F)cc1` [Example 47], the inhibition constant (Ki) came to 878 nM.
In the case of `C[C@]12Cn3cnc(-c4ccc(F)cc4)c3C=C1CCC[C@@H]2[C@@H](O)c1ccc(F)cc1` [Example 49] it was 35.3 nM; in that of `C[C@]12Cn3cnc(-c4ccc(F)cc4)c3C=C1CCC[C@@H]2[C@H](O)c1ccc(F)cc1` [Example 50], 29.7 nM.
The result for `C=CC[C@H](O)[C@H]1CCCC2=Cc3c(-c4ccc(F)cc4)ncn3C[C@@]21C` [Example 51] reads 7.38 nM.
Take `C=CC[C@@H](O)[C@H]1CCCC2=Cc3c(-c4ccc(F)cc4)ncn3C[C@@]21C` [Example 52]: the Ki amounted to 8.67 nM.
The result for `CC(C)C[C@@](C)(O)[C@H]1CCCC2=Cc3c(-c4ccc(F)cc4)ncn3C[C@@]21C` [Example 59] reads 9.67 nM; that for `C[C@]12Cn3cnc(-c4ccc(F)cc4)c3C=C1CCC[C@@H]2[C@](C)(O)C#Cc1ccccc1` [Example 70], 59.9 nM.
Take `C[C@]12Cn3cnc(-c4ccc(F)cc4)c3C=C1CCC[C@@H]2C(=O)c1ccccc1CN1CCCC1` [Example 72]: the inhibitory constant (Ki) was greater than 1150 nM.
Take `Cc1cccc(C)c1C(=O)[C@H]1CCCC2=Cc3c(-c4ccc(F)cc4)ncn3C[C@@]21C` [Example 76]: the Ki was 207 nM.
In the case of `C[C@]12Cn3cnc(-c4ccc(F)cc4)c3C=C1CCC[C@@H]2[C@](C)(O)c1ccc(C#N)cc1` [Example 79] it was 3.42 nM; in that of `C[C@]12Cn3cnc(-c4ccc(F)cc4)c3C=C1CCC[C@@H]2[C@]1(C)OC(=N)c2ccccc21` [Example 84], 201 nM; in that of `C[C@]12Cn3cnc(-c4ccc(F)cc4)c3C=C1CCC[C@@H]2[C@]1(C)OC(=O)c2ccccc21` [Example 85], 177 nM.
The result for `C[C@]12Cn3cnc(-c4ccc(F)cc4)c3C=C1CCC[C@@H]2CC(=O)Nc1nccs1` [Example 86] reads 67.1 nM.
The result for `CC(C)(C)OC(=O)NCC[C@H]1CCCC2=Cc3c(-c4ccc(F)cc4)ncn3C[C@@]21C` [Example 88] reads 11.4 nM; that for `C[C@]12Cn3cnc(-c4ccc(F)cc4)c3C=C1CCC[C@@H]2[C@@H](O)C(F)(F)F` [Example 90], 103 nM; that for `C[C@]12Cn3cnc(-c4ccc(F)cc4)c3C=C1CCC[C@@H]2[C@H](O)C(F)(F)F` [Example 91], 85.5 nM.
For the compound `C[C@]12Cn3cnc(-c4ccc(F)cc4)c3C=C1CCC[C@@H]2C(=O)C1CCOCC1` [Example 94], the inhibitory constant (Ki) was found to be 344 nM.
As for `CC(C)(O)c1ccc([C@@](C)(O)[C@H]2CCCC3=Cc4c(-c5ccc(F)cc5)ncn4C[C@@]32C)cc1` [Example 98], the inhibition constant (Ki) came out at 4.45 nM.
Consider `C=CC1(O)CCCC2=Cc3c(-c4ccc(F)cc4)ncn3CC21C` (stereo not shown) [Example 101, 1-(4-Fluorophenyl)-5a-methyl-6-vinyl-5,5a,6,7,8,9-hexahydroimidazo[1,5-b]isoquinolin-6-ol], for which the Ki stood at 755 nM.
